From ChEMBL document CHEMBL2074103, “Up-regulation of the multidrug resistance genes, Mrp1 and Mdr1b, and down-regulation of the organic anion transporter, Mrp2, and the bile salt transporter, Spgp, in endotoxemic rat liver” (Hepatology, 1998)

Legend:
Type in all cases: functional, organism-based
[1] = target: T1, ATP-binding cassette sub-family C member 2 (Rattus norvegicus, UniProt Q63120); test: (§1) TP_TRANSPORTER: Western in vivo, liver of Wistar rat
Bile salt export pump [2] = target: T2, Bile salt export pump (Rattus norvegicus, UniProt O70127); test: as §1
T2 sequence (O70127 whole entry): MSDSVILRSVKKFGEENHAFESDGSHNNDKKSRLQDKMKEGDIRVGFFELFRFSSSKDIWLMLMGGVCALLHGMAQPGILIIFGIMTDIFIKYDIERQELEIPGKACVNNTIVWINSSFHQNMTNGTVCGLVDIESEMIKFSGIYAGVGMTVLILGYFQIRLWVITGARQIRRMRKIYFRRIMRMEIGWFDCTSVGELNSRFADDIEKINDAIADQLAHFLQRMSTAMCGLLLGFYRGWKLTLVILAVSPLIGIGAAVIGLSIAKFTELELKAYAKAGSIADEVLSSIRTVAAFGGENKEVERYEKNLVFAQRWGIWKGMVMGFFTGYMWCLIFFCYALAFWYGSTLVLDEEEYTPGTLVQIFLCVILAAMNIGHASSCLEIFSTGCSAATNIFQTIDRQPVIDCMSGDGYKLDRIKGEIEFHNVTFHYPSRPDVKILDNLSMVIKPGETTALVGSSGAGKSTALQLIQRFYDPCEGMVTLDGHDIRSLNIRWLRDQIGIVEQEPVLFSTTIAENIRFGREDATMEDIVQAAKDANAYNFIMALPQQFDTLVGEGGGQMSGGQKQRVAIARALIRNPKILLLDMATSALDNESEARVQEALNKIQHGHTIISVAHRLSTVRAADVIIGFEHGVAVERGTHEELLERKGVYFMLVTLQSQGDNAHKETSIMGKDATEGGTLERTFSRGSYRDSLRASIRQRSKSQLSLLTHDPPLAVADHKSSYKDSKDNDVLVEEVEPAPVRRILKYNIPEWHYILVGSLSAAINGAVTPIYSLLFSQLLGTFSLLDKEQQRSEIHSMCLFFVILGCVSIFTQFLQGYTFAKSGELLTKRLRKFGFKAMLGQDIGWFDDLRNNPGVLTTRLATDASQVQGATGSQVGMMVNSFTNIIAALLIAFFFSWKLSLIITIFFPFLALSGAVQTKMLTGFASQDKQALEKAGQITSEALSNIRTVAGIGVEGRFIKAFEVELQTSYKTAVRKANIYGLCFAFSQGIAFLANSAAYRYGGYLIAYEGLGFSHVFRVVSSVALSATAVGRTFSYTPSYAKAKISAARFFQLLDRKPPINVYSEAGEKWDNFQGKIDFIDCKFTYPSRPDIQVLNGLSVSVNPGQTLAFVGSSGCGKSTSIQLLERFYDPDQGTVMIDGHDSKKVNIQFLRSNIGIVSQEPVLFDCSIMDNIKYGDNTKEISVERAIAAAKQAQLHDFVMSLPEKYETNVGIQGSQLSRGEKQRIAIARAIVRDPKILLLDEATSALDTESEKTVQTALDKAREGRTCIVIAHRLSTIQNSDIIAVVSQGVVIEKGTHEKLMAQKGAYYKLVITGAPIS

[3] = target: T3, Multidrug resistance-associated protein 1 (Rattus norvegicus, UniProt Q8CG09); test: as §1
T3 sequence (Q8CG09 whole entry): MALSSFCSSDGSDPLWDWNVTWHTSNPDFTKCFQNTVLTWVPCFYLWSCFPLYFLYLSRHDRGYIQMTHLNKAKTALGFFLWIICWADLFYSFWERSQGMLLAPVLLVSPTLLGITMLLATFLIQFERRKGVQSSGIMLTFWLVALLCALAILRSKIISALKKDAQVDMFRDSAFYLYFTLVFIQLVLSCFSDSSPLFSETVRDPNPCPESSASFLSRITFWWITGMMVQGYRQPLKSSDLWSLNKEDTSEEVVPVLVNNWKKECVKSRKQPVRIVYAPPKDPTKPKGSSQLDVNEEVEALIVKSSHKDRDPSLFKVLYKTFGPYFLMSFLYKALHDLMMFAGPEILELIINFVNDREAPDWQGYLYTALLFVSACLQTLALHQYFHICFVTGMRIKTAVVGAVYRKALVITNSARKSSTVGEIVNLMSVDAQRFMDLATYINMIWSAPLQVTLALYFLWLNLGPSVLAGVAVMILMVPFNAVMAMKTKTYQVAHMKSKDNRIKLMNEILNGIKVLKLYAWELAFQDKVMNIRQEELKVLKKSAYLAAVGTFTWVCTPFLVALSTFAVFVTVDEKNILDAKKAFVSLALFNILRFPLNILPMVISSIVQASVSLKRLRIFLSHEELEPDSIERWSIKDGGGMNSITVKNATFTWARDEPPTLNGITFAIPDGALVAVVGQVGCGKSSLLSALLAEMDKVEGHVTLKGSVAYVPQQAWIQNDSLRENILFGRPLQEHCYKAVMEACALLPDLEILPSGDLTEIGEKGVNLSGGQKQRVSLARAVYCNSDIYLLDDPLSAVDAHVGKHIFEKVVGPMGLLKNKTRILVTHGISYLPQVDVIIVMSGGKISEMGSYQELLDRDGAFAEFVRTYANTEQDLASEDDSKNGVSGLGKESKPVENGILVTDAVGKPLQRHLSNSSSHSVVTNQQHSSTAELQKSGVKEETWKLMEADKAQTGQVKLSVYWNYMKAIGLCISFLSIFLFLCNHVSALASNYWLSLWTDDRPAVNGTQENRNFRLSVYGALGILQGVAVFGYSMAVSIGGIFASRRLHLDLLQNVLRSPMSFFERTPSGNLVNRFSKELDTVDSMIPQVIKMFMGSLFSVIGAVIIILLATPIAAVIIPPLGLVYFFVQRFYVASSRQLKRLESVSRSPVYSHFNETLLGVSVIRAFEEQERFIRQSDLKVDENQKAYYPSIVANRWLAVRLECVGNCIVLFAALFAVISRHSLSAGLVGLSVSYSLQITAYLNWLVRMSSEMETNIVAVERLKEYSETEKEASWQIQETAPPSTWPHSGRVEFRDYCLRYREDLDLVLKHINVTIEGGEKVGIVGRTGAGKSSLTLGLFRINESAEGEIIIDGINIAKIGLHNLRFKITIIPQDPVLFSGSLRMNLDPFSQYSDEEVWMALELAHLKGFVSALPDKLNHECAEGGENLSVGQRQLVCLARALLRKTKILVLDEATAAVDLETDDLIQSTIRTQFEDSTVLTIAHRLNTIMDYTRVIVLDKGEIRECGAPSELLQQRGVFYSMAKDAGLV

[4] = target: T1, ATP-binding cassette sub-family C member 2; test: (§2) TP_TRANSPORTER: RT-PCR in vivo, liver of Wistar rat
[5] = target: ATP-dependent translocase ABCB1 (Rattus norvegicus, UniProt P43245); test: as §2
Chain of ATP-dependent translocase ABCB1 (P43245 whole entry): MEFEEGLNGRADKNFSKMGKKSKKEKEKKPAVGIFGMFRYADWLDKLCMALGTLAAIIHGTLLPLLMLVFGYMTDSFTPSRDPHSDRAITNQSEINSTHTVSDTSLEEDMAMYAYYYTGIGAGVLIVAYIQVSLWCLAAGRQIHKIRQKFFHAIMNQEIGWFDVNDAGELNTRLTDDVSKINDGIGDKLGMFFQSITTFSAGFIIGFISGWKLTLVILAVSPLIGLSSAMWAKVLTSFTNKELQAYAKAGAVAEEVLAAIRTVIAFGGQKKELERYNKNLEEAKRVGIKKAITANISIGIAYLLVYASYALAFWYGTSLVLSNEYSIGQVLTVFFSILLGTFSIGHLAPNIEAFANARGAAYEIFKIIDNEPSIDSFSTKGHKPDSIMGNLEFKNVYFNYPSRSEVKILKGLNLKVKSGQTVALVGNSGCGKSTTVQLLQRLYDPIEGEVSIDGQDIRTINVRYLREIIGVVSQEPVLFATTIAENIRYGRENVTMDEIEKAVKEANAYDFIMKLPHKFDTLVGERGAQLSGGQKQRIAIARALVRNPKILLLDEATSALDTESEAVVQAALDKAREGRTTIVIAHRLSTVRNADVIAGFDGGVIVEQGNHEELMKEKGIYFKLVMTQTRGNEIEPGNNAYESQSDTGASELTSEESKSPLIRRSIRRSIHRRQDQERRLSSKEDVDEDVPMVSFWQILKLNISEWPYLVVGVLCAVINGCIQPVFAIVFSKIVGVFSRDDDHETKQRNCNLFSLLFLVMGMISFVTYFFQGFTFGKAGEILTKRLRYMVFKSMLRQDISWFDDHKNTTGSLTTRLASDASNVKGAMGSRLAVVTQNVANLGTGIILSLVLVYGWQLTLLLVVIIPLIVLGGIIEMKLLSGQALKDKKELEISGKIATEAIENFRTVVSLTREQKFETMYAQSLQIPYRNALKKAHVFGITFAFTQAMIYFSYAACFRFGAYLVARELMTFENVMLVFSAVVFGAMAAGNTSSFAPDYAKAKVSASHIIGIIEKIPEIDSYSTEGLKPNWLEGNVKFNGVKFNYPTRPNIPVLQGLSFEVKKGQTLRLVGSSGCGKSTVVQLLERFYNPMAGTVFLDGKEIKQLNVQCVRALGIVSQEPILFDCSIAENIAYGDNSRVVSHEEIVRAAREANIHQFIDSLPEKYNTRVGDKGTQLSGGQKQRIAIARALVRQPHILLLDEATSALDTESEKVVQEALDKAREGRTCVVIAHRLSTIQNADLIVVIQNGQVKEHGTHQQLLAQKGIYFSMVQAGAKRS

Bile salt export pump [6] = target: T2, Bile salt export pump; test: as §2
[7] = target: T3, Multidrug resistance-associated protein 1; test: as §2
[8] = target: Multidrug resistance protein 1a (Rattus norvegicus) (UniProt Q6PSM0); test: as §1

T1 sequence (Q63120 whole entry): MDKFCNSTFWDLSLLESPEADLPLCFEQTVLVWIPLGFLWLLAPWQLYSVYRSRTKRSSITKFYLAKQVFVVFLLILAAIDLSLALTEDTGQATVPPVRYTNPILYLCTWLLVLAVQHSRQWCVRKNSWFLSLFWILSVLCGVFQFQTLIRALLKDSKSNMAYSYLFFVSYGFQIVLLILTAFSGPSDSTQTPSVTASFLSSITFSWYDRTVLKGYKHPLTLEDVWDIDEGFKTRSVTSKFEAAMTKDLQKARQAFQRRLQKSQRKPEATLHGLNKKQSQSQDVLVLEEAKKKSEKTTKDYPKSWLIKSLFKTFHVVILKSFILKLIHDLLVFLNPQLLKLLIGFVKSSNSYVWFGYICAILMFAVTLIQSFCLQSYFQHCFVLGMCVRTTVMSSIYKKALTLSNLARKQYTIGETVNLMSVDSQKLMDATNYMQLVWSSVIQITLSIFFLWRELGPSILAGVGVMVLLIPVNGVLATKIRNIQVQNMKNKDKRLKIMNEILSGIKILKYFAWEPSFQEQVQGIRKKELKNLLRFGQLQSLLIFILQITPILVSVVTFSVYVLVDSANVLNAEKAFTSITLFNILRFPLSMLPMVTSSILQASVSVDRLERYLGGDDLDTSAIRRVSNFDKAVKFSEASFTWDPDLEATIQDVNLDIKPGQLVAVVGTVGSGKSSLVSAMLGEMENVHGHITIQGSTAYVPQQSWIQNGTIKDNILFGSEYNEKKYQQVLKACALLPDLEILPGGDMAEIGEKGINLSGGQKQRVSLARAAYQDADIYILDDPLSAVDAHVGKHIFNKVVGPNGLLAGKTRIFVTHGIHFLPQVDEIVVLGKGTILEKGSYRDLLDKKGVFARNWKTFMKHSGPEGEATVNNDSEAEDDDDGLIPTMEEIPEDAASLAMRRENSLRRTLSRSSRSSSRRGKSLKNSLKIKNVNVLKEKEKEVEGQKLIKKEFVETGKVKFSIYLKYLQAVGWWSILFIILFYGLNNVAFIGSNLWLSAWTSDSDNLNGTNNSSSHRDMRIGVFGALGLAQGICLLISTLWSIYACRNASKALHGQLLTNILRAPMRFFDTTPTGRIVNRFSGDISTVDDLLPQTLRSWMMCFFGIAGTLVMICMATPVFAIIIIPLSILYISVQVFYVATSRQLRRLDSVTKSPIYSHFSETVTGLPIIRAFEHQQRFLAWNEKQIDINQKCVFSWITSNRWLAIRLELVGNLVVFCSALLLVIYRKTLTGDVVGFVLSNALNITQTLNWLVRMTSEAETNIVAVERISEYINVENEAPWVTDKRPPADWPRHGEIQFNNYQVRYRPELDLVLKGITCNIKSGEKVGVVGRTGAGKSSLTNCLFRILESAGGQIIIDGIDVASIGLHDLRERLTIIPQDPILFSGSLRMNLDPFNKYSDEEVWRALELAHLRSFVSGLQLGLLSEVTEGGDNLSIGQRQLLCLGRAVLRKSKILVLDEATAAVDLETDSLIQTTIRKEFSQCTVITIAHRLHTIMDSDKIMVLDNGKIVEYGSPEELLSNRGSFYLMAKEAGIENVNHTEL

Structure (SMILES): CCCCCCCCCCCCCC(=O)OC(CCCCCCCCCCC)CC(=O)OC1C(NC(=O)CC(CCCCCCCCCCC)OC(=O)CCCCCCCCCCC)C(OC2CC(OC(=O)CC(O)CCCCCCCCCCC)C(NC(=O)CC(O)CCCCCCCCCCC)C(O)O2)OC(CO)C1OP(=O)(O)O (stereo not drawn)
- Activity [1]: inducer [Decrease]
- Activity (Bile salt export pump [2]): inducer [Decrease]
- Activity [3]: inducer [+]
- Activity [4]: inducer [Decrease]
- Activity [5]: inducer [+]
- Activity (Bile salt export pump [6]): inducer [Decrease]
- Activity [7]: inducer [+]
- Activity [8]: inducer [Decrease]
